Measured values taken from patent US20250368649A1, “TETRAHYDROPYRIDOPYRIMIDINE PAN-KRAS INHIBITORS” (Mirati Therapeutics, Inc., priority 2022, published 2025).

What was measured:
KRas G12R = KRas G12R (Homo sapiens, UniProt P01116, G12R); assay: biochemical; conditions: Binding to KRas (IC50 nM) G12R, TR-FRET displacement, KRas G12R
H358 cells = assay: Inhibition of KRas-mediated phosphorylation of ERK (Cisbio HTRF pERK), H358 cells; assay type: cell-based; conditions: Homo sapiens; for IC50: NCI-H358, 3 h, 3 hr compound incubation, Cisbio pERK HTRF; for inhibition at 0.1 µM: NCI-H358, single point at 100 nM, 3 hrs compound incubation
H460 cells = assay: Inhibition of KRas-mediated phosphorylation of ERK (Cisbio HTRF pERK), H460 cells; assay type: cell-based; conditions: Homo sapiens; for IC50: NCI-H460, 3 h, 3 hr compound incubation, Cisbio pERK HTRF; for inhibition at 0.1 µM: NCI-H460, single point at 100 nM, 3 hrs compound incubation
ASPC1 cells = assay: Inhibition of KRas-mediated phosphorylation of ERK (Cisbio HTRF pERK), ASPC1 cells; assay type: cell-based; conditions: Homo sapiens, AsPC-1 cells; for IC50: ASPC1, 3 h, 3 hr compound incubation, Cisbio pERK HTRF; for inhibition at 0.1 µM: ASPC1, single point at 100 nM, 3 hrs compound incubation
KRas G12V = KRas G12V (Homo sapiens, UniProt P01116, G12V); assay: biochemical; conditions: Binding to KRas (IC50 nM) G12V, TR-FRET displacement, KRas G12V
Sequence of KRas G12V (P01116 1-169 isoform P01116-2 G12V): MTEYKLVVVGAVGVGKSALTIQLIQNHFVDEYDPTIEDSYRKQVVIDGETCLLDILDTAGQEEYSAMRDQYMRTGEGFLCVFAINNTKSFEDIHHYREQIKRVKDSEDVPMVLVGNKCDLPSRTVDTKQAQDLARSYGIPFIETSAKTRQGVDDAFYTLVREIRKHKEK

KRas G12S = KRas G12S (Homo sapiens, UniProt P01116, G12S); assay type: binding; conditions: single point, 10 nM compound, read-out: Binding to KRas (% inhibition at 10 nM) G12S
Sequence of KRas G12S (P01116 1-169 isoform P01116-2 G12S): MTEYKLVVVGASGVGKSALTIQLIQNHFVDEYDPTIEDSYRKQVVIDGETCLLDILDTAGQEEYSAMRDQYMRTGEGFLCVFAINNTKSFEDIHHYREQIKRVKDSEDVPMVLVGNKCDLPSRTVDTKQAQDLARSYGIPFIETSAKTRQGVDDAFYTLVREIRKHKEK

KRas G12A = KRas G12A (Homo sapiens, UniProt P01116, G12A); assay type: binding; conditions: single point, 10 nM compound, read-out: Binding to KRas (% inhibition at 10 nM) G12A
Sequence of KRas G12A (P01116 1-169 isoform P01116-2 G12A): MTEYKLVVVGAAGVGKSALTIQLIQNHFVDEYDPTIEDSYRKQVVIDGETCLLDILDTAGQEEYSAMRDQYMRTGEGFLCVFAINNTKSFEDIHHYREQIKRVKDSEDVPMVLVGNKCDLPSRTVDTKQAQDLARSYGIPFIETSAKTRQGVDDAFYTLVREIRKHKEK

KRas G12D = KRas G12D (Homo sapiens, UniProt P01116, G12D); assay: biochemical; conditions: Binding to KRas (IC50 nM) G12D, TR-FRET displacement, KRas G12D
Sequence of KRas G12D (P01116 1-169 isoform P01116-2 G12D): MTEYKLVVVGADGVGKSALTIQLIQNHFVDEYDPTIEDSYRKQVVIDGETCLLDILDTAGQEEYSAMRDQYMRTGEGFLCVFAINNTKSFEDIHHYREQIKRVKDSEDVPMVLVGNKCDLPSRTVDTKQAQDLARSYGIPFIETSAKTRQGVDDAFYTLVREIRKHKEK

KRas G13D = KRas G13D (Homo sapiens, UniProt P01116, G13D); assay type: binding; conditions: single point, 10 nM compound, read-out: Binding to KRas (% inhibition at 10 nM) G13D
Sequence of KRas G13D (P01116 1-169 isoform P01116-2 G13D): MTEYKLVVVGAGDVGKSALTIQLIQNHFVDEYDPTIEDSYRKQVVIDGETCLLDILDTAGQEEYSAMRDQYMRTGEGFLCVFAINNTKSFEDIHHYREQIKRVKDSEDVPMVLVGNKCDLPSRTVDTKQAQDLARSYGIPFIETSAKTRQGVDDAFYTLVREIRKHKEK

HCT116 cells = assay: Inhibition of KRas-mediated phosphorylation of ERK (Cisbio HTRF pERK), HCT116 cells; assay type: cell-based; conditions: Homo sapiens; for IC50: HCT-116, 3 h, 3 hr compound incubation, Cisbio pERK HTRF; for inhibition at 0.1 µM: HCT-116, single point at 100 nM, 3 hrs compound incubation
KRas Q61H = KRas Q61H (Homo sapiens, UniProt P01116, Q61H); assay: KRas binding assay (TR-FRET displacement), KRas Q61H; conditions: single point, 10 nM compound
Sequence of KRas Q61H (P01116 1-169 isoform P01116-2 Q61H): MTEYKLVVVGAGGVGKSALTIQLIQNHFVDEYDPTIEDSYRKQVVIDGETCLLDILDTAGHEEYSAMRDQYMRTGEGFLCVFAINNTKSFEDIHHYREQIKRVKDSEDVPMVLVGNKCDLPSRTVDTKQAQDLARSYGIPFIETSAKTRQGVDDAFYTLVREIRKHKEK

A549 cells = assay: Inhibition of KRas-mediated phosphorylation of ERK (Cisbio HTRF pERK), A549 cells; assay type: cell-based; conditions: Homo sapiens; for IC50: A549, 3 h, 3 hr compound incubation, Cisbio pERK HTRF; for inhibition at 0.1 µM: single point at 100 nM, 3 hrs compound incubation
H727 cells = assay: Inhibition of KRas-mediated phosphorylation of ERK (Cisbio HTRF pERK), H727 cells; assay type: cell-based; conditions: Homo sapiens; for IC50: NCI-H727, 3 h, 3 hr compound incubation, Cisbio pERK HTRF; for inhibition at 0.1 µM: NCI-H727, single point at 100 nM, 3 hrs compound incubation
MKN1 cells = assay: Inhibition of KRas-mediated phosphorylation of ERK (Cisbio HTRF pERK), MKN1 cells; assay type: cell-based; conditions: Homo sapiens, MKN-1, 3 hour compound incubation, Cisbio pERK HTRF
Summary of the method: (§1)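 Cells were seeded on day 1 at 6,000 per well in RPMI containing 10% FBS before compound treatment and phospho-ERK detection.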

PSN1 cells = assay: Inhibition of KRas-mediated phosphorylation of ERK (Cisbio HTRF pERK), PSN1 cells; assay type: cell-based; conditions: Homo sapiens, PSN1, 3 h, 3 hour compound incubation, Cisbio pERK HTRF
Summary of the method: as §1

KRas G12C = KRas G12C (Homo sapiens, UniProt P01116, G12C); assay type: binding; conditions: single point, 10 nM compound, read-out: Binding to KRas (% inhibition at 10 nM) G12C
Sequence of KRas G12C (P01116 1-169 isoform P01116-2 G12C): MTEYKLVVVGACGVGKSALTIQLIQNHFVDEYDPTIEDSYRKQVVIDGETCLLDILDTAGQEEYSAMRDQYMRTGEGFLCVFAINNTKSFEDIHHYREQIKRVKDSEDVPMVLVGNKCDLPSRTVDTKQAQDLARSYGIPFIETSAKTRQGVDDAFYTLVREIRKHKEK

KRas WT = KRas WT (Homo sapiens, UniProt P01116); assay: KRas binding assay (TR-FRET displacement), KRas WT; conditions: single point, 10 nM compound
Sequence of KRas WT (P01116 1-169 isoform P01116-2): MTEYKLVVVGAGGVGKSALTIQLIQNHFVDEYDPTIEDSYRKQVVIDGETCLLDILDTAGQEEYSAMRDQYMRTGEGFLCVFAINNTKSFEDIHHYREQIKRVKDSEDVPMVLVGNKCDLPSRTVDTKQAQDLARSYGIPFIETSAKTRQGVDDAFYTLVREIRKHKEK

Sequence of KRas G12R (P01116 1-169 isoform P01116-2 G12R): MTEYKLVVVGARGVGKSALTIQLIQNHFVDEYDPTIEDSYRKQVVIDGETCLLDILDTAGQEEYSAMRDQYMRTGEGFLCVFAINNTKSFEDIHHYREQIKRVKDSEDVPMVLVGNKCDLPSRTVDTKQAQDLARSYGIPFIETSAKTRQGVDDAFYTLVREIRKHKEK

SMILES | IC50 (KRas G12R) [nM] | IC50 (H358 cells) [nM] | inhibition at 0.1 µM (H358 cells) [%] | IC50 (H460 cells) [nM] | inhibition at 0.1 µM (H460 cells) [%] | IC50 (ASPC1 cells) [nM] | IC50 (KRas G12V) [nM] | inhibition at 0.01 µM (KRas G12S) [%] | inhibition at 0.01 µM (KRas G12A) [%] | IC50 (KRas G12D) [nM] | inhibition at 0.01 µM (KRas G13D) [%] | IC50 (HCT116 cells) [nM] | inhibition at 0.1 µM (HCT116 cells) [%] | inhibition at 0.01 µM (KRas Q61H) [%] | IC50 (A549 cells) [nM] | IC50 (H727 cells) [nM] | IC50 (MKN1 cells) [nM] | IC50 (PSN1 cells) [nM] | inhibition at 0.01 µM (KRas G12C) [%] | inhibition at 0.01 µM (KRas WT) [%] | other results
CCc1c(F)ccc2cc(O)cc(N3CCc4c(nc(OC[C@@]56CCCN5C[C@H](F)C6)nc4N4CCCn5nc(C(=O)N6C7CCC6CC7)cc5C4)C3)c12 [Example 340, 7-azabicyclo[2.2.1]heptan-7-yl(5-(7-(8-ethyl-7-fluoro-3-hydroxynaphthalen-1-yl)-2-(((2R,7aS)-2-fluorohexahydro-1H-pyrrolizin-7a-yl)methoxy)-5,6,7,8-tetrahydropyrido[3,4-d]pyrimidin-4-yl)-5,6,7,8-tetrahydro-4H-pyrazolo[1,5-a][1,4]diazepin-2-yl)methanone] | < 2 | 3 | 96 | 31 | 69 | 8 | < 2 | 99 | 97 | < 2 | 94 | 110 | 32 | 97 | 11 | 4 | 7.5 | 2510 | 98 | 94 | inhibition at 0.1 µM (ASPC1 cells): 96%; inhibition at 0.1 µM (A549 cells): 82%; inhibition at 0.1 µM (H727 cells): 80%
CCc1c(F)ccc2cc(O)cc(N3CCc4c(nc(OC[C@@]56CCCN5C[C@H](F)C6)nc4N4CCCn5nc(C(=O)N6C7CCCC6CC7)cc5C4)C3)c12 [Example 341, 8-azabicyclo[3.2.1]octan-8-yl(5-(7-(8-ethyl-7-fluoro-3-hydroxynaphthalen-1-yl)-2-(((2R,7aS)-2-fluorohexahydro-1H-pyrrolizin-7a-yl)methoxy)-5,6,7,8-tetrahydropyrido[3,4-d]pyrimidin-4-yl)-5,6,7,8-tetrahydro-4H-pyrazolo[1,5-a][1,4]diazepin-2-yl)methanone] | 2 | 3 | 91 | 42 | 77 | 8 | < 2 | 96 | 87 | 2 | 92 | 141 | 47 | 95 | 19 | 9 | 6.7 | 4530 | 97 | 93 | inhibition at 0.1 µM (ASPC1 cells): 95%; inhibition at 0.1 µM (A549 cells): 75%; inhibition at 0.1 µM (H727 cells): 76%
CCc1c(F)ccc2cc(O)cc(N3CCc4c(nc(OC[C@@]56CCCN5C[C@H](F)C6)nc4N4CCCn5nc(C(=O)N6CC7CC6C7)cc5C4)C3)c12 [Example 342, 2-azabicyclo[2.1.1]hexan-2-yl(5-(7-(8-ethyl-7-fluoro-3-hydroxynaphthalen-1-yl)-2-(((2R,7aS)-2-fluorohexahydro-1H-pyrrolizin-7a-yl)methoxy)-5,6,7,8-tetrahydropyrido[3,4-d]pyrimidin-4-yl)-5,6,7,8-tetrahydro-4H-pyrazolo[1,5-a][1,4]diazepin-2-yl)methanone] | < 2 | 2 | 100 | 23 | 86 | 2 | < 2 | 99 | 96 | < 2 | 96 | 74 | 59 | 96 | 8 | 4 | 3.9 | 2400 | 99 | 96 | inhibition at 0.1 µM (ASPC1 cells): 96%; inhibition at 0.1 µM (A549 cells): 87%; inhibition at 0.1 µM (H727 cells): 80%
CCc1c(F)ccc2cc(O)cc(N3CCc4c(nc(OC[C@@]56CCCN5C[C@H](F)C6)nc4N4CCCn5nc(C(=O)N6CCC7CC76)cc5C4)C3)c12 (stereo partly drawn) [Example 344, 2-azabicyclo[3.1.0]hexan-2-yl(5-(7-(8-ethyl-7-fluoro-3-hydroxynaphthalen-1-yl)-2-(((2R,7aS)-2-fluorohexahydro-1H-pyrrolizin-7a-yl)methoxy)-5,6,7,8-tetrahydropyrido[3,4-d]pyrimidin-4-yl)-5,6,7,8-tetrahydro-4H-pyrazolo[1,5-a][1,4]diazepin-2-yl)methanone] | < 2 | 2 | 97 | 24 | 88 | 2 | < 2 | 99 | 97 | < 2 | 96 | 55 | 57 | 97 | 7 | 3 | 4.1 | 2030 | 99 | 97 | inhibition at 0.1 µM (A549 cells): 85%
CCc1c(F)ccc2cc(O)cc(N3CCc4c(nc(OC[C@@]56CCCN5C[C@H](F)C6)nc4N4CCCCn5nc(C(=O)N(C)C)cc5C4)C3)c12 [Example 349, 5-(7-(8-ethyl-7-fluoro-3-hydroxynaphthalen-1-yl)-2-(((2R,7aS)-2-fluorohexahydro-1H-pyrrolizin-7a-yl)methoxy)-5,6,7,8-tetrahydropyrido[3,4-d]pyrimidin-4-yl)-N,N-dimethyl-4,5,6,7,8,9-hexahydropyrazolo[1,5-a][1,4]diazocine-2-carboxamide] | < 2 | 2 | 101 | 24 | 84 | 8 | < 2 | 99 | 96 | < 2 | 96 | 74 | 47 | 98 | 6 | 2 | 3.9 | 862 | 99 | 96 | inhibition at 0.1 µM (ASPC1 cells): 96%; inhibition at 0.1 µM (A549 cells): 75%; inhibition at 0.1 µM (H727 cells): 86%
CCc1c(F)ccc2cc(O)cc(N3CCc4c(nc(OC[C@@]56CCCN5C[C@H](F)C6)nc4N4CCCn5nc(N)c(Cl)c5C4)C3)c12 [Example 358, 4-(4-(2-amino-3-chloro-7,8-dihydro-4H-pyrazolo[1,5-a][1,4]diazepin-5(6H)-yl)-2-(((2R,7aS)-2-fluorohexahydro-1H-pyrrolizin-7a-yl)methoxy)-5,6-dihydropyrido[3,4-d]pyrimidin-7(8H)-yl)-5-ethyl-6-fluoronaphthalen-2-ol] | < 2 | 4 |  | 25 | 90 | 4 | < 2 | 99 | 93 | < 2 | 94 | 111 | 50 | 95 | 10 | 16 | 20.6 | 7400 | 99 | 94 | inhibition at 0.1 µM (ASPC1 cells): 95%; inhibition at 0.1 µM (H727 cells): 72%
